The target of test [1] is T1, Protein skinhead-1 (Caenorhabditis elegans, UniProt P34707).
T1 sequence (P34707 whole entry): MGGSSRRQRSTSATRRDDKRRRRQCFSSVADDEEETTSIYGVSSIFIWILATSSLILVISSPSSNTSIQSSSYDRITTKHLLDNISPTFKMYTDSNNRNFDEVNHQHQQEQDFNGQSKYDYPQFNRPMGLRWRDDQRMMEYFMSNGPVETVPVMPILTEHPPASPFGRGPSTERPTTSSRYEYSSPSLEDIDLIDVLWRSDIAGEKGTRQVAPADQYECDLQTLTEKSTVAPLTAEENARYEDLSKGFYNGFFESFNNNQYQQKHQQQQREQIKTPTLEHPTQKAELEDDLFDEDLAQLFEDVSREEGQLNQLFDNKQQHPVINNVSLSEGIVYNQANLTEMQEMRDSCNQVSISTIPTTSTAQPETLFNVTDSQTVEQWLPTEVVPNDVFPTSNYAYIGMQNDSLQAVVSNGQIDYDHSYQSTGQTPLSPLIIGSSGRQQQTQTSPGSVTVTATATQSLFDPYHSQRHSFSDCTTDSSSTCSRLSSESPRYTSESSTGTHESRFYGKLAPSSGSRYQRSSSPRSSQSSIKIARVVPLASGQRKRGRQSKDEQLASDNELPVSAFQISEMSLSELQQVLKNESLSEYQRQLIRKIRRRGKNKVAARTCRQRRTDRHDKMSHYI
The format is functional.

Test [2] can be described thus: Shn3 3'UTR reporter inhibitors, dose response, cell-based, Clone20 osteoblasts, firefly luciferase, cherry-picked (AID 624132).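 Also: firefly luciferase luminescence from reporter carrying the Shn3 3'UTR in osteoblasts.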 Type of test: functional.
Test [3] is described as follows: inhibitors of SNCA 5'UTR-driven reporter translation, confirmation, H4 neuroglioma cells, luminescence (AID 1988). The format is functional, cell-based.
Test [4] is described as follows: inhibitors of firefly luciferase expression or activity, dose response, H4 neuroglioma cells, luminescence (AID 1990). The format is functional, cell-based.
Test [5] in a line: Luminescence Cell-Based Dose Retest to Confirm Inhibitors of Cancer Stem Cells. [Related pubchem assays (depositor defined):AID2717, AID2721]. Type of test: functional. The note with it: Homo sapiens.
Test [6] addresses Cytochrome P450 3A4 (Homo sapiens, UniProt P08684).
Test [7] can be described thus: HEp-2 cell cytotoxicity, dose response, cytotoxicity control for RSV inhibitor project, HTS (AID 2410). Type of test: functional. Particulars: human respiratory syncytial virus.
In test [8] the target is T2, Protein RecA (Mycobacterium tuberculosis, UniProt P9WHJ3).
T2 sequence (P9WHJ3 whole entry): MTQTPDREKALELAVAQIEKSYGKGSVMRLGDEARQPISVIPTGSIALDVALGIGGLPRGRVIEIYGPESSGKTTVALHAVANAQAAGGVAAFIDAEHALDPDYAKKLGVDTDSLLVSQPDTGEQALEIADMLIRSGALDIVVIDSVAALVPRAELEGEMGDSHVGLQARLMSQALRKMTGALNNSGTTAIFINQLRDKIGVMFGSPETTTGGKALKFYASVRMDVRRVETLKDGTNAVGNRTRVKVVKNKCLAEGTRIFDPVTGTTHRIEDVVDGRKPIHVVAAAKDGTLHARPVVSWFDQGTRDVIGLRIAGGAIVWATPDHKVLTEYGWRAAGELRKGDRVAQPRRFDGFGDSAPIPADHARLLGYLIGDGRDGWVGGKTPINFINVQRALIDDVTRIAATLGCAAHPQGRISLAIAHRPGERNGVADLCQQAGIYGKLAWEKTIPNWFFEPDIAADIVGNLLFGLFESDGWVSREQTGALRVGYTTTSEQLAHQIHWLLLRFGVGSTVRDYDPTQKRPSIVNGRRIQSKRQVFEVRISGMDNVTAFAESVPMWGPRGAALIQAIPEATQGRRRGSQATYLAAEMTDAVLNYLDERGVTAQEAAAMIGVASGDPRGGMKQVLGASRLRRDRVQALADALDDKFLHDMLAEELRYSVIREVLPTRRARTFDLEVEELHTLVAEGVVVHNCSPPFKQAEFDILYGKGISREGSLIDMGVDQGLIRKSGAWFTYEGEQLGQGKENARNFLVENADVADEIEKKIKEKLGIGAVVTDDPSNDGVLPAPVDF
Nature of the test: Fluorescence Cell-Free Homogeneous Dose Retest to Identify Inhibitors of RecA-Intein Splicing Activity. [Related pubchem assays (depositor defined):AID2097, AID2223, AID489010, AID492950]. Type of test: functional.

Test [9] has as its target T3, Replicative DNA helicase DnaB (Mycobacterium tuberculosis, UniProt P9WMR3).
T3 sequence (P9WMR3 whole entry): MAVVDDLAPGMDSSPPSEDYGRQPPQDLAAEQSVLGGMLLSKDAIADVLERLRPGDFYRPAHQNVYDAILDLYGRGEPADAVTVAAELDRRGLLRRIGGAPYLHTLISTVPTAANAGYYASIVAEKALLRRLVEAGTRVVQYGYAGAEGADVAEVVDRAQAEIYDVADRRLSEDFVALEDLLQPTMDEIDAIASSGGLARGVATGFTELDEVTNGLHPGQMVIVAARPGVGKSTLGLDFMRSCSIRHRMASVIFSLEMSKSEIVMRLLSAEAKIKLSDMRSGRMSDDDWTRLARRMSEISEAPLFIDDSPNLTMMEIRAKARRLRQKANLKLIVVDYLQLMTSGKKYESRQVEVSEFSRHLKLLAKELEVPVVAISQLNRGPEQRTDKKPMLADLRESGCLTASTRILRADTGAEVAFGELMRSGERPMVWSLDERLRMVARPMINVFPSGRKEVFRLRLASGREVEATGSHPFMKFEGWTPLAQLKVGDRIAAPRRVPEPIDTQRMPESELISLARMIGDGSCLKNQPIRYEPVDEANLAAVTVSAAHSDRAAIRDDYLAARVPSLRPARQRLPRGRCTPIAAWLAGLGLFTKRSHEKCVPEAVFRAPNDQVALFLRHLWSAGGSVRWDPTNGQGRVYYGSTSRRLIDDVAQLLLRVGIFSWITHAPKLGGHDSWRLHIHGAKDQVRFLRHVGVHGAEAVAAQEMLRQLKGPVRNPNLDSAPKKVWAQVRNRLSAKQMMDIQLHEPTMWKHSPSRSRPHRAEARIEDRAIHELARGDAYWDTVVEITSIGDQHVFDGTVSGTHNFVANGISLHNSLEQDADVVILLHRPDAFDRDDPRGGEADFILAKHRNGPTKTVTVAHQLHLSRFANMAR
As to the kind of experiment: DnaB intein splicing inhibitors, dose response, biochemical, cell-free fluorescence (AID 449749). The format is functional.

In test [10] the target is T4, Heat shock factor protein 1 (Mus musculus, UniProt P38532).
T4 sequence (P38532 whole entry): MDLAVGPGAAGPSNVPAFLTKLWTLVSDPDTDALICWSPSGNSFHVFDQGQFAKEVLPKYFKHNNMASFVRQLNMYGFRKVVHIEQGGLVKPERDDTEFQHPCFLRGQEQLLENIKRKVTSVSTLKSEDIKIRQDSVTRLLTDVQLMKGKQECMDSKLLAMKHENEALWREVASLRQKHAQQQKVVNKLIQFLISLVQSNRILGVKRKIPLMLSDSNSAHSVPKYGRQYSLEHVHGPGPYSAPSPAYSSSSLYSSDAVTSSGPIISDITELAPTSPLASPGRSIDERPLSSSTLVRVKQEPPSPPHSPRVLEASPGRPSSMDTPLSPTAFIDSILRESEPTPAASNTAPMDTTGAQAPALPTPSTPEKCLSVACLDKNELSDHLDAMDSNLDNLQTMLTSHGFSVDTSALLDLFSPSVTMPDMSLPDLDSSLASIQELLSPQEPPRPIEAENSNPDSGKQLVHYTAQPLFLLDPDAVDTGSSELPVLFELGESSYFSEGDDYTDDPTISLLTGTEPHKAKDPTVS
As to the kind of experiment: inhibition of MG132-induced HSE-luciferase signal, confirmation, cell-based, NIH3T3, luminescence, dose retest (AID 2382).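 Also: NIH3T3 fibroblasts with HSF1-driven luciferase reporter stressed by proteasome inhibitor MG132; luminescence from HSF1-driven luciferase expression after 8 hours of MG132 stress.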 The format is functional.

Test [11] deals with T5, Calpain-2 catalytic subunit (Sus scrofa, UniProt P43367).
T5 sequence (P43367 whole entry): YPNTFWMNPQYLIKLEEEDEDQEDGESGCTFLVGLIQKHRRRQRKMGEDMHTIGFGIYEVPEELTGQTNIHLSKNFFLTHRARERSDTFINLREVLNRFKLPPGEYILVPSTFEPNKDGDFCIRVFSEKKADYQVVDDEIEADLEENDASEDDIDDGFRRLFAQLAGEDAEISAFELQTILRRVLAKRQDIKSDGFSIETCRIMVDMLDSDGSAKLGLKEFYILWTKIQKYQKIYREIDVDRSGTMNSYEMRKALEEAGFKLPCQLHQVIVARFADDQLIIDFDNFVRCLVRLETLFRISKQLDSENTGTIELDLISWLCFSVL
As to the kind of experiment: pig calpain II inhibitor potency, dose response, biochemical, fluorogenic peptide substrate (AID 1420). The format is functional.

Structures are written as SMILES. Active and inactive are the calls of the source.

Sequence of Cytochrome P450 3A4 (P08684 whole entry): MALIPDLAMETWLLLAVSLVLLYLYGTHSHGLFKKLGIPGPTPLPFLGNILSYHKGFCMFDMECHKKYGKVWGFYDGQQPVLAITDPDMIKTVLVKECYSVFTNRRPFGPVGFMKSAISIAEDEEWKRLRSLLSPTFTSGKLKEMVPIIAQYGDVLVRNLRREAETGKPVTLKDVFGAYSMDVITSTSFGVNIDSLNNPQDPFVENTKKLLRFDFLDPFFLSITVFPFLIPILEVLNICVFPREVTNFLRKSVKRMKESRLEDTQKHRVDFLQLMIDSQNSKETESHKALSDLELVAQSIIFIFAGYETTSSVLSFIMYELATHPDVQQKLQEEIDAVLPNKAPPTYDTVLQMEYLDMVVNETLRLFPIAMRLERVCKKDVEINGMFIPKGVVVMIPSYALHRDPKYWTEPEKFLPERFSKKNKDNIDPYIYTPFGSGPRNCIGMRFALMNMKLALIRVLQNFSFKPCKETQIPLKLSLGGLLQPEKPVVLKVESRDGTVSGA

Usually IC50 stands for the point on the concentration scale where inhibition reaches its midpoint. Consider `CCCOC(=O)c1cc(O)nc2ccccc12`, for which the IC50 in test [1] is > 100 µM (inactive).
As a reminder, the AC50 is the concentration giving half of the maximal activity seen. For `CCN1CCN(Cc2ccc(NC(=O)c3cc(NC(=O)c4cc5cccc(OC)c5o4)cc(OC)c3)cc2C(F)(F)F)CC1`, the AC50 in [2] is 10.2 µM (active).
What is called EC50 is the concentration needed to bring the measured effect to its halfway point. On to `COc1ccc(NC(=O)c2cccc(N3C(=O)c4ccc(C(=O)Nc5ccc(OC)c(O)c5)cc4C3=O)c2)cc1O`, for which the values for the EC50 in [3] and in [4] were 13.4 µM (active) and 15 µM (active), respectively.
Take `CCOC(=O)CN1CC23C=CC(O2)C(C(=O)NCc2cccs2)C3C1=O` (stereo not given): the IC50 in test [1] is > 100 µM (inactive).
Same read-out and setting: then `O=C(Nc1ccc(-c2noc(CCc3ccccc3)n2)cc1)c1ccco1`, with > 100 µM (inactive); and `Fc1ccccc1/C=C/c1ccc2ccccc2n1`, with 19.2 µM (active); and `c1ccc(CSc2ncnc3ccccc23)cc1`, with 36.1 µM (active).
As for `COC(=O)c1c(NC(=O)c2ccco2)sc2c1CCC2`, the IC50 in test [1] is > 100 µM (inactive). The AC50 in test [5] was 68.2 µM (active); in test [6] it was 39.8 µM (inconclusive).
The term CC50 denotes the concentration that lowers cell viability or growth by half. With `O=[N+]([O-])c1cccc2ccc(/C=C/c3ccc(Cl)cc3)nc12`, in test [1], the IC50 is > 100 µM (inactive). In addition, the CC50 in test [7] was 20 µM (active).
Regarding `Cc1cc(C)c2c(c1)-c1c(ssc1=S)C(C)(C)N2C(=O)CSc1nncn1C`, the EC50 in test [8] was 8.17 µM (active). Moreover, in test [9], the AC50 is 5.32 µM (active).
In the case of `Cn1cc([C@@H]2C[C@H]3CN(Cc4cccc(Cl)c4)C(=O)[C@]34CCCN24)c2ccccc21`, the IC50 in test [1] is > 100 µM (inactive).
With `CC1CCCCN1S(=O)(=O)c1ccc(C(=O)Nc2sccc2C(N)=O)cc1` (stereo not given), the IC50 in test [1] is > 100 µM (inactive). Also, the CC50 in test [7] is 19.2 µM (active). Further, the EC50 in test [10] was > 195 µM (not active).
With `CCCCOC(=O)Nc1ccc(N2CCCCC2)cc1`, in [1], the half-maximal inhibitory concentration (IC50) was 10.6 µM (active).
On to `CCCNC(=O)CCn1nc(-c2ccc(Cl)cc2)c2ccccc2c1=O`, for which the half-maximal effective concentration (EC50) is > 120 µM (not active) in test [3] and 18.5 µM (active) in [4].
Consider `CC(C)CS(=O)(=O)C1=NSC2=NC(=O)/C(=C\c3ccc(OC(=O)c4ccco4)cc3)C(=N)N21`, for which the EC50 in test [8] is 13.8 µM (active). In test [9], the AC50 is > 380 µM (inactive).
Regarding `COc1nc(-c2ccccc2)nnc1-c1ccccc1`, the half-inhibitory concentration (IC50) in test [1] was 23 µM (active).
As for `O=[N+]([O-])c1ccc(NCc2ccc(Cl)cc2)nc1`, the values for the IC50 in [11] and in test [1] were 12.6 µM (not active) and 32.1 µM (active), respectively.
As to `CC(Oc1ccc(F)cc1)C(=O)Oc1ccc(N(C)S(=O)(=O)c2ccccc2)cc1` (stereo not given), the half-maximal effective concentration (EC50) in [8] was 58.5 µM (active). Besides, the AC50 in test [9] was 0.725 µM (active).
Take `CCOC(=O)c1ccc(-n2[nH]c(-c3ccccc3)cc2=O)cc1`: the results for the EC50 in [8] and in test [10] were 2.25 µM (active) and > 195 µM (not active), respectively. In addition, the AC50 in test [5] was 5.35 µM (active); in test [9], 3.43 µM (active).
Regarding `CCOC(=O)c1cnc(N)nc1C(F)(F)F`, the EC50 in test [8] is > 380 µM (inactive). Further, in [9], the AC50 is > 380 µM (inactive).

Values taken from ChEMBL document CHEMBL1201862, “PubChem BioAssay data set” (2004).
